These results are taken from US6417182B1, “Pharmaceutical compositions comprising metal complexes” (AnorMED Inc., priority 1993, dated 2002).

Assay [1] deals with murine (RAW264) macrophage cell lines. In words: in vitro cell culture test: available nitric oxide (nitrite+nitrate, Griess) in activated macrophages. It counts as cell-based. The note with it: up to 100 μM. The method, then:
In the in vitro cell culture tests, murine (RAW264) macrophage cell lines, which can be induced to produce nitric oxide, were seeded, 10^6 cells/well, onto 24 well culture plates of 2 ml volume per well, in Eagles modified minimal essential medium (MEM) plus 10% foetal bovine serum without phenol red.
The cells were activated to produce nitric oxide, with 10 μg/ml lipopolysaccharide and 100 units/ml interferon γ for 18 hours. Concurrently, test compounds made up in MEM were added at non-cytotoxic concentrations. […]
Background nitric oxide was assessed by measurement of nitrate and nitrite in cells which were not activated. […]
Nitric oxide was determined by measurement of nitrate and nitrite in the cell supernatant These anions are the stable end-products of reactions of NO in solution. […] Nitrite was determined using the Griess reaction in which nitrite reacts with 1% sulphanilamide in 5% H3PO4/0.1% naphthylethylenediamine dihydrochloride to form a chromophore absorbing at 540 nm Nitrate was determined by reducing nitrate to nitrite with a bacterial nitrate reductase from Pseudomonas oleovorans and then measuring nitrite with the Griess reaction. […] The effect of test compounds on available nitric oxide (measured as nitrite+nitrate) was determined. […]
(Griess reagent forms a coloured azo dye with nitrite.)

A further assay has as its system rat tail artery. Nature of the assay: ex vivo rat tail artery perfusion test (vasoconstriction by removal of endogenous NO). Particulars: for vasoconstriction on application of test compound (in words): 10 μM and 100 μM (Example 26 also 1000 μM); for reversibility of vasoconstriction: washout with Krebs solution. Details: species or system Wistar rats. The source says: In the ex vivo tests, segments of rat tail artery (0.8-1.5 cm) were dissected free from normotensive adult Wistar rats. The arteries were internally perfused with Krebs solution (mM: NaCl 118, KCl 4.7, NaHCO3, 25, NaH2PO4 1.15, CaCl2 2.5, MgCl2 1.1, glucose 5.6 and gassed with 95% O2/5% CO2 to maintain a pH of 7.4) in a constant flow perfusion apparatus. A differential pressure transducer located upstream of the vessel detected changes in back pressure. The rat tail artery preparation was pre-contracted with 6.5 μM phenylephrine to give a physiologically normal pressure of 100-120 mm Hg. The pre-contracted vessels were then perfused with the test compound. The arteries were perfused with Krebs solution between applications of test compound to wash out the test compound.
Pressure changes in the system served to indicate artery vasoconstriction. The vasoconstriction is a direct result of the removal of endogenous nitric oxide (edrf) from the endothelial cells of the rat tail artery.

Assay [2] is described as follows: in vitro NO uptake test (manometric pressure decrease; IR spectrum of freeze-dried product). Particulars: aqueous solution under argon, 20-24° C., NO gas in headspace, pressure recorded over one hour. The method, then: The resulting solution was placed in a three-necked pear-shaped flask and stirred by a magnetic stirrer at constant speed of 1000 rpm, at a constant temperature in the range 20° C.-24° C. A manometer was attached to the flask, and purified, dried nitric oxide gas (known volume in the range 3-5 cm^3) was introduced via a septum, using a gas syringe, at atmospheric pressure into the headspace above the reaction solution. The pressure within the flask was recorded periodically over a period of one hour.
A control experiment was carried out according to the above but without any complex present.
On completion of each in vitro test, the reaction solution was freeze-dried. An infrared spectrum of the freeze-dried product provided information on metal-NO bond formation.

In the case of `O.O.O=C([O-])CN(CCN(CC(=O)[O-])CC(=O)O)CC(=O)[O-].[Cl-].[K+].[Ru+3]` [Example 1, K[Ru(Hedta)Cl]2H2O], in assay [1], the “dose dependence of reduction of available nitric oxide” value is “reduced in a dose-dependent fashion”.
On to `CC(=O)C=C(C)[O-].O=C([O-])CN(CCN(CC(=O)[O-])CC(=O)O)CC(=O)O.[Ru+3]` [Example 2, [Ru(H2edta)(acac)]], for which, in the assay with rat tail artery, the “vasoconstriction on application of test compound (in words)” value (“vasoconstriction on application” for short) is listed as “dose-dependent vasoconstriction” and the reversibility of vasoconstriction entry is “reversible by washout with Krebs solution”.
Turning to `O.O=C([O-])CN(CCO)CCN(CC(=O)[O-])CC(=O)[O-].[Cl-].[K+].[Ru+3]` [Example 3, K[Ru(hedtra)Cl]H2O], in the assay on rat tail artery, the “vasoconstriction on application” value is “dose-dependent vasoconstriction” and the reversibility of vasoconstriction entry is reported as “reversible by washout with Krebs solution”.
Regarding `O.O=C([O-])CN(CC(=O)[O-])CC(=O)O.O=C([O-])CN(CC(=O)[O-])CC(=O)O.O=C([O-])CN(CC(=O)[O-])CC(=O)O.O=C([O-])CN(CC(=O)[O-])CC(=O)O.[K+].[K+].[Ru+3].[Ru+3]` [Example 7, K[Ru(Hnta)2]½H2O], the “pressure decrease indicating binding of NO to the metal compound” value in assay [2] is “pressure decrease indicated binding of NO”.
With `O.O=C([O-])CN(CCN(CC(=O)[O-])CC(=O)O)CCN(CC(=O)[O-])CC(=O)O.[Cl-].[K+].[Ru+3]` [Example 8, K[Ru(H2dtpa)Cl]H2O], the “pressure decrease indicating binding of NO to the metal compound” value in assay [2] was “pressure decrease indicated binding of NO”.
Regarding `CC(=O)[O-].CC(=O)[O-].CC(=O)[O-].CC(=O)[O-].[Cl-].[Ru+3].[Ru+3]` [Example 14, [Ru2(OAc)4]Cl], in the assay with rat tail artery, the “vasoconstriction on application” value is recorded as “dose-dependent vasoconstriction” and the reversibility of vasoconstriction entry was “reversible by washout with Krebs solution”.
Turning to `Cc1occc(=O)c1[O-].Cc1occc(=O)c1[O-].Cc1occc(=O)c1[O-].[Ru+3]` [Example 26, [Ru(maltol)3]], in the assay with rat tail artery, the “vasoconstriction on application” value is “dose-dependent vasoconstriction” and the reversibility of vasoconstriction entry is given as “reversible by washout with Krebs solution”.
For the compound [Ru(NH3)5Cl]Cl2 [Example 15], in the assay on rat tail artery, the “vasoconstriction on application” value is given as “dose-dependent vasoconstriction” and the reversibility of vasoconstriction result is “reversible by washout with Krebs solution”. In the assay on rat tail artery (10 μM, artery pre-contracted with 6.5 μM phenylephrine), the “% Vasoconstriction” value is on record as 16%.
